Among the data in ChEMBL document CHEMBL1131425 (J Med Chem, 1998) are Ki values, retold here.

Assay [1] has as its target T1, 5-hydroxytryptamine receptor 1A (Rattus norvegicus, UniProt P19327).
T1 sequence (P19327 whole entry): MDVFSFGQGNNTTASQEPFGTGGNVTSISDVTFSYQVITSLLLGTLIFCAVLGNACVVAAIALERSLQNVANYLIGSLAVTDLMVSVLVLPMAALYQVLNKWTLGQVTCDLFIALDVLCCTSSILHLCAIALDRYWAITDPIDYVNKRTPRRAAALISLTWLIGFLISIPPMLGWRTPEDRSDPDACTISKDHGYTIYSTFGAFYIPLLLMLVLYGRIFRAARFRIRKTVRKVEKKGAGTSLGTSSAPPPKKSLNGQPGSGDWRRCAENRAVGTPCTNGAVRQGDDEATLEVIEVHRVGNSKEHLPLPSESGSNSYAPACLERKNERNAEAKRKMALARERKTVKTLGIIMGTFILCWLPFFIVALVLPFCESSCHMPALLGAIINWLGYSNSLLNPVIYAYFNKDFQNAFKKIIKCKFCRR
The assay can be described thus: Binding affinity against rat 5-hydroxytryptamine 1A receptor in CHO cells. It counts as cell-based.

Assay [2] addresses 5-hydroxytryptamine receptor 2A (Rattus norvegicus, UniProt P14842). The assay can be described thus: Binding affinity against rat 5-hydroxytryptamine 2A receptor in NIH3T3 cells. It counts as cell-based.
In assay [3] the target is T2, 5-hydroxytryptamine receptor 2C (Rattus norvegicus, UniProt P08909).
T2 sequence (P08909 whole entry): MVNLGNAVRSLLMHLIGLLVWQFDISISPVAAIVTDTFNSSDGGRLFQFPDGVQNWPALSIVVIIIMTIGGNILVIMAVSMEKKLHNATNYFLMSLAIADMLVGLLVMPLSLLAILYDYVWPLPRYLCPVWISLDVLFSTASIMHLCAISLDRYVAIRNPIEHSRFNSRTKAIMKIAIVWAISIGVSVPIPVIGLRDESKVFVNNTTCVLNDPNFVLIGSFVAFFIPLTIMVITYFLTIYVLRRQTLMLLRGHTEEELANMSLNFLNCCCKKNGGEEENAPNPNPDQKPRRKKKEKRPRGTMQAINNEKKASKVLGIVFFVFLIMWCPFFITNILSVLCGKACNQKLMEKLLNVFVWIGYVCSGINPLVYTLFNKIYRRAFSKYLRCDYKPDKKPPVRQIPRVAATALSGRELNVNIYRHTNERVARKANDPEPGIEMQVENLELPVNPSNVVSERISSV
Nature of the assay: Binding affinity against rat 5-hydroxytryptamine 2C receptor in A-9 cells. It counts as cell-based.

The target of the next assay is D(2) dopamine receptor (Rattus norvegicus, UniProt P61169). The assay can be described thus: Binding affinity against rat Dopamine receptor D2.
D(2) dopamine receptor, sequence (P61169 whole entry): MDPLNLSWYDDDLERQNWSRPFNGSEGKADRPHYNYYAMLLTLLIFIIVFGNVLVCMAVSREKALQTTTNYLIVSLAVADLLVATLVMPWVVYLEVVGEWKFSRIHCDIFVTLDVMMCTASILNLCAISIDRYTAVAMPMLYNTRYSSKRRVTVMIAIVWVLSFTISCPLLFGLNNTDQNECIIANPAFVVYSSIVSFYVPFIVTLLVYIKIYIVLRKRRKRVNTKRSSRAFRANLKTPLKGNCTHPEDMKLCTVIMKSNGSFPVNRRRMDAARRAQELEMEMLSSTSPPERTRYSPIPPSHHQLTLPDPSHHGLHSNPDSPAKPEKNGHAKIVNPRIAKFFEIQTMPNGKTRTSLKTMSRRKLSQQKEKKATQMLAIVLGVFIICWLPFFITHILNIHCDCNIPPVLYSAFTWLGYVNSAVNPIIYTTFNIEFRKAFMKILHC

5-hydroxytryptamine receptor 2A, sequence (P14842 whole entry): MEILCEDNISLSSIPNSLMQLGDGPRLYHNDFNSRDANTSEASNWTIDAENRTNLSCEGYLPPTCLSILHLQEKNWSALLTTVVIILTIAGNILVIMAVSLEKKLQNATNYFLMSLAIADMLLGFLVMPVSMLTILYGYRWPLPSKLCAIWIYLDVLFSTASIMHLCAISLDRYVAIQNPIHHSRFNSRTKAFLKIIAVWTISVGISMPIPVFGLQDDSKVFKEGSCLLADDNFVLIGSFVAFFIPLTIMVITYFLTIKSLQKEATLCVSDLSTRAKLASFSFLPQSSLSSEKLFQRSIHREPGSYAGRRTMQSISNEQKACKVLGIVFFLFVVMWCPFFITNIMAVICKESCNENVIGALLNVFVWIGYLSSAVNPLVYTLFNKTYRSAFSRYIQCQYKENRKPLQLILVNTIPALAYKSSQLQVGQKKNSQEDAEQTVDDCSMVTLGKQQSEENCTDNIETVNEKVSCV

Consider `O=C(CCCN1CCC2(CC1)NCNC2=O)c1ccc(F)cc1`, for which the results for the Ki in assay [1], in assay [2] and in assay [3] were above 10000 nM, 5600 nM and above 10000 nM, respectively.

As to `CN1CN(C)C2(CCN(CCCC(=O)c3ccc(F)cc3)CC2)C1=O`, the Ki in assay [1] was above 10000 nM; in assay [2], 45 nM; in assay [3], above 10000 nM; at D(2) dopamine receptor it was 300 nM.

As for `CN1CN(Cc2ccccc2)C(=O)C12CCN(CCCC(=O)c1ccc(F)cc1)CC2`, the Ki in assay [1] came to 265 nM; in assay [2] it was 22 nM; in assay [3] it was 1400 nM.

Turning to `CC(C)N1CN(C)C2(CCN(CCCC(=O)c3ccc(F)cc3)CC2)C1=O`, the inhibition constant Ki in assay [1] was 6300 nM; in assay [2] it was 7 nM; in assay [3], above 10000 nM; on D(2) dopamine receptor, 46 nM.

With `CNC1(C(N)=O)CCN(CCCC(=O)c2ccc(F)cc2)CC1`, the Ki in assay [1] was above 10000 nM; in assay [2] it was 130 nM; in assay [3], 4480 nM.

Turning to `CC(C)NC1(C(N)=O)CCN(CCCC(=O)c2ccc(F)cc2)CC1`, the inhibitory constant (Ki) in assay [1] is above 10000 nM; in assay [2] it was 14 nM; in assay [3], 426 nM; on D(2) dopamine receptor it was 400 nM.

As for `O=C(CCCN1CCC2(CC1)C(=O)NCN2C1CCCCC1)c1ccc(F)cc1`, the inhibition constant (Ki) in assay [2] is 0.7 nM; in assay [3], 677 nM; on D(2) dopamine receptor, 0.7 nM.

Consider `CCCCN1CN(C)C2(CCN(CCCC(=O)c3ccc(F)cc3)CC2)C1=O`, for which the Ki in assay [1] is above 10000 nM; in assay [2], 19 nM; in assay [3], above 10000 nM; on D(2) dopamine receptor, 13 nM.

Consider `CN1CNC(=O)C12CCN(CCCC(=O)c1ccc(F)cc1)CC2`, for which the inhibition constant (Ki) was above 10000 nM in assay [1], 23 nM in assay [2], above 10000 nM in assay [3] and 220 nM at D(2) dopamine receptor.

As for `CCCN1CN(C)C2(CCN(CCCOc3ccc(F)cc3)CC2)C1=O`, the inhibitory constant (Ki) in assay [1] is above 10000 nM; in assay [2], 19 nM; in assay [3] it was above 10000 nM; at D(2) dopamine receptor, 230 nM.

Take `CCCN1CN(C)C2(CCN(CCCC(=O)c3ccc(F)cc3)CC2)C1=O`: the Ki was above 10000 nM in assay [1], 20 nM in assay [2], above 10000 nM in assay [3] and 130 nM at D(2) dopamine receptor.

`CN1CNC(=O)C12CCN(CCCOc1ccc(F)cc1)CC2`: the Ki is 35 nM in assay [2], above 10000 nM in assay [3] and 734 nM on D(2) dopamine receptor.

With `CCN1CNC(=O)C12CCN(CCCC(=O)c1ccc(F)cc1)CC2`, the inhibition constant Ki was 7960 nM in assay [1], 170 nM in assay [2], above 10000 nM in assay [3] and 170 nM at D(2) dopamine receptor.

As to `CCN1CN(C)C2(CCN(CCCC(=O)c3ccc(F)cc3)CC2)C1=O`, the Ki in assay [1] is above 10000 nM; in assay [2] it was 21 nM; in assay [3], above 10000 nM.

As to `NC(=O)C1(NC2CCCCC2)CCN(CCCC(=O)c2ccc(F)cc2)CC1`, the Ki was determined as 1610 nM in assay [1], 6 nM in assay [2], 270 nM in assay [3] and 43 nM at D(2) dopamine receptor.

Take `CC(C)N1CNC(=O)C12CCN(CCCC(=O)c1ccc(F)cc1)CC2`: the Ki was 2340 nM in assay [1], 38 nM in assay [2], above 10000 nM in assay [3] and 400 nM at D(2) dopamine receptor.

In the case of `NC(=O)C1(N)CCN(CCCC(=O)c2ccc(F)cc2)CC1`, the Ki in assay [2] was 420 nM; in assay [3], above 10000 nM.

For `O=C(CCCN1CCC2(CC1)C(=O)NCN2c1ccccc1)c1ccc(F)cc1` [SPIPERONE], the Ki in assay [1] came out at 58 nM.

As a reminder, the Ki is a dissociation constant, usually derived from enzyme kinetics or from competition with a known ligand. Lower therefore signals higher affinity.
